The target of assay [1] is T1, NQO1 WT (NAD(P)H:quinone oxidoreductase 1) (Homo sapiens, UniProt P15559).
T1 construct: codon-optimised gene in pET28a, E. coli; FAD-containing homodimer
The assay is described as follows: ThermoFAD thermal shift. Format: binding. As to conditions: 2 mM BPPSA, 50 mM HEPES pH 7.0.

Assay [2] has as its target T2, NQO1 WT (NAD(P)H:quinone oxidoreductase 1) (Homo sapiens, UniProt P15559, P187S).
T2 construct: codon-optimised gene in pET28a, E. coli; FAD-containing homodimer
Put plainly: NADH-menadione reductase assay, absorbance at […] nm. The assay is classed as biochemical.

The target of assay [3] is T2, NQO1 WT (NAD(P)H:quinone oxidoreductase 1). The assay is described as follows: ThermoFAD thermal shift. Format: binding. As to conditions: 2 mM BPPSA, 50 mM HEPES pH 7.0.
Assay [4] addresses T1, NQO1 WT (NAD(P)H:quinone oxidoreductase 1). Put plainly: NADH-menadione reductase assay, absorbance at […] nm. Format: biochemical.
Assay [5] has the same target. Put plainly: isothermal titration calorimetry. The assay is classed as binding. As to conditions: read-out: dissociation constant. From the text: (§1) isothermal titration calorimetry on NQO1 WT (NAD(P)H:quinone oxidoreductase 1) | dissociation constants for the binding of BPPSA to the wild‐type and P187S variant
For orientation: Isothermal titration calorimetry measures the heat released or taken up as one component is titrated into another.

Assay [6] concerns the target T2, NQO1 WT (NAD(P)H:quinone oxidoreductase 1). The assay is described as follows: isothermal titration calorimetry. As to conditions: read-out: dissociation constant. The assay is classed as binding.
Excerpt: as §1

The target of assay [7] is T1, NQO1 WT (NAD(P)H:quinone oxidoreductase 1). The assay is described as follows: crystal structure, […] Å. The assay is classed as binding. Particulars: co-crystal with BPPSA; FAD in all four chains.

Structures are written as SMILES.

As for `O=S(=O)(Nc1ccccc1Br)N1CCCC1` [BPPSA, N‐(2‐bromophenyl)pyrrolidine‐1‐sulfonamide], the “increase in melting temperature” value was 1 °C in assay [1] and 2.5 °C in assay [3]. The 50% inhibitory concentration (IC50) in assay [2] came out at 26.2 ± 1.2 µM; in assay [4] it was 8.6 ± 1.1 µM. The results for the Kd in assay [5] and in assay [6] were 7.95 ± 0.8 µM and 20 ± 0.41 µM, respectively.
Regarding `Cc1cc2nc3c(=O)[nH]c(=O)nc-3n(C[C@H](O)[C@H](O)[C@H](O)COP(=O)(O)OP(=O)(O)OC[C@H]3O[C@@H](n4cnc5c(N)ncnc54)[C@H](O)[C@@H]3O)c2cc1C` [FAD], the “crystal structure, 2.76 Å” value in assay [7] is reported as “Clear residual electron density was observed for FAD bound to each of the four chains”.

By IC50 is commonly meant the midpoint of a concentration-inhibition curve. A higher IC50 goes with weaker potency.

Values taken from publication PMC7027498, “A small molecule chaperone rescues the stability and activity of a cancer‐associated variant of NAD(P)H:quinone oxidoreductase 1 in vitro” (Febs Letters, 2019).
